We go through two compounds from patent publication US20160000803A1, “PHARMACEUTICAL COMPOSITION FOR TRANSMUCOSAL ADMINISTRATION OF BENZODIAZEPINES” (EASTGATE PHARMACEUTICALS INC., priority 2013, published 2016).

How the values of series [1] were obtained:
After combining of pre-weighed amounts of components they were gently triturated at room temperature (20-22° C.) using a stainless steel spatula until liquid phase is formed.

Another series has as its system PTZ induced seizures. Put plainly: Timed intravenous PTZ infusion test (ivPTZ). Format: in vivo, mice. The text has this: For investigation of anti-seizure activity of invented formulations, a timed intravenous PTZ infusion test was employed.
The technique of timed i.v. PTZ (pentylenetetrazole) infusion test (ivPTZ) is a simple, reproducible and fast method for assessment of onset, peak, duration and potency of various anticonvulsants and proconvulsants in animals. This test provides an extremely sensitive parametric method for assessing seizure threshold in individual animals and a quantifiable endpoint can be obtained with a minimal number of animals. Different seizure types can be chosen as endpoint in this test. Usually, the first seizure occurring during the PTZ infusion is a myoclonic twitch, followed by clonic and, later, tonic seizures.
This method offers many advantages over the more widely used classical subcutaneous PTZ (scPTZ) test. Since with ivPTZ, test effects based on different endpoints are measured in individual animals, the number of animals required for a proper evaluation is much lower than would be needed for standard scPTZ test. […]
During the infusion, mice are observed for the onset of different types of seizures. The time latencies from the start of infusion to the appearance of the first clonus (characterized by rapid involuntary rhythmic contraction and relaxation of limbs), lasting longer than 5 seconds, are recorded. […]

For the next series, the system named is seizures. The note with it: intranasal, human patients; cited from earlier work.

The structures appear in SMILES notation. Where two headings read alike, the source gives them in different places.

Regarding `O=C1Nc2ccc(Cl)cc2C(c2ccccc2Cl)=NC1O` (centres unmarked) [Lorazepam], the results for the increase of solubility in series [1] (MCT oil + 5% Menthol by weight vs pure MCT oil) and in series [1] (MCT with 8% Menthol vs pure MCT oil) were 28% and ~60%, respectively. In the series with PTZ induced seizures (intraperitoneal 2.5 mg/kg, 5 minutes time point, infusion 0.3 ml/min, PTZ 10 mg/ml), the PTZ dose threshold lay in the range of 100 to 120 mg/kg. Besides, the “time of maximal protection” value with PTZ induced seizures (parenterally administered) is reported as “approximately 5 minutes”.

As for `Cc1ncc2n1-c1ccc(Cl)cc1C(c1ccccc1F)=NC2` [Midazolam], in the series on seizures, the onset of action entry is listed as “approximately 10 minutes”.
